Results on 37 molecules are retold here after US20250129027A1 (APOGEE PHARMACEUTICALS, INC., priority 2023, published 2025).

One assay addresses human recombinant FAAH (Homo sapiens (Human), UniProt O00519). Put plainly: In vitro inhibition of FAAH activity (fluorescent inhibitor screening kit, AMC arachidonoyl amide). It is filed as biochemical. Conditions: human recombinant FAAH; read-out: Inhibition on FAAH activity (IC50). From the text:
The inhibitory effect of compounds of Formula (I-IV) on the activity of human recombinant FAAH was studied using a commercial inhibitor screening kit (Cayman Chemicals, Godlewski et al., 2010 [19]). In brief, FAAH hydrolyzes AMC arachidonoyl amide resulting in the release of the fluorescent product, while the inhibitor will inhibit the FAAH activity and thus reduce the fluorescent signal. The resulting fluorophore can be analyzed using an excitation wavelength of 340-360 nm and an emission wavelength of 450-465 nm by a plate reader (Synergy H1, Biotek). Inhibition is calculated as a percentage of the treated sample over the non-treated control based on the signal values, and where possible, a range of concentrations of compounds was tested to find the IC50 values (i.e. the concentration of compound that inhibited 50% FAAH activity).

A further assay concerns the target human recombinant MAGL (Homo sapiens (Human), UniProt Q99685). Put plainly: In vitro inhibition of MAGL activity (inhibitor screening kit, 4-nitrophenylacetate). It is filed as biochemical. The following applies: human recombinant MAGL. The procedure:
The inhibitory effect of the compounds on activity of human recombinant MAGL was also studied using a commercial inhibitor screening kit (Cayman Chemicals). In brief, MAGL hydrolyzes 4-nitrophenylacetate resulting in a yellow product, 4-nitrophenol with an absorbance at 405-412 nm, while the inhibitor will inhibit the MAGL activity and thus reduce the yellow signal. The absorbance of the yellow product can be analyzed using the plate reader. Inhibition is calculated as a percentage of the treated sample over the non-treated MAGL control based on the signal values.

Chain of human recombinant MAGL (Q99685 whole entry): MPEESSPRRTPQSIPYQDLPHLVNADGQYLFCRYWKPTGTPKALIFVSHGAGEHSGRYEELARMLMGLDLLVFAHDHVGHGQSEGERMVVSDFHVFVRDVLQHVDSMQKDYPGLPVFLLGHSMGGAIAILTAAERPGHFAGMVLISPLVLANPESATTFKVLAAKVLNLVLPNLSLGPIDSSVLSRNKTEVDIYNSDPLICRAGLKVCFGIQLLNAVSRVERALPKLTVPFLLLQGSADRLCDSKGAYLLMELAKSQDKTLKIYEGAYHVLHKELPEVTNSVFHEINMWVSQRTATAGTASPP
Chain of human recombinant FAAH (O00519 whole entry): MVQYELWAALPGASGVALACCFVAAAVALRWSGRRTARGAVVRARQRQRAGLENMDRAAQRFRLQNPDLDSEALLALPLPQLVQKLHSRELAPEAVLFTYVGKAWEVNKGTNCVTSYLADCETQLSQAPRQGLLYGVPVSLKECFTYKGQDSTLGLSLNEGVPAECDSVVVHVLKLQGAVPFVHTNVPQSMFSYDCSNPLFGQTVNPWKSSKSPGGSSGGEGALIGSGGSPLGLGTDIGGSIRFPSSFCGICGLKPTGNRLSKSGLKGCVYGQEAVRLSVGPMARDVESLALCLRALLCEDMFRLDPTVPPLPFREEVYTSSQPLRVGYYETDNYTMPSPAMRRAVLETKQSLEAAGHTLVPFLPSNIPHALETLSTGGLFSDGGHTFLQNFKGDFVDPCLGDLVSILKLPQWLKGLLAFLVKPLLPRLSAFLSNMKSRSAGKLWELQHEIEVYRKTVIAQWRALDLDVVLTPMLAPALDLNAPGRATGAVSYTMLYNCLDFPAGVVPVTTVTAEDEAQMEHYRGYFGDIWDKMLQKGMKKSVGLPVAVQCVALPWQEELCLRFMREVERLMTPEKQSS

Consider `CCCCCCCCNC(=O)Oc1ccc(O)c(-c2cncc(-c3nnco3)c2)c1` [Example 157, 3-(5-(1,3,4-oxadiazol-2-yl)pyridin-3-yl)-4-hydroxyphenyl octylcarbamate], for which the IC50 (in general, the concentration that gives 50% inhibition) at human recombinant FAAH is 1 to 10 nM.

As for `O=C(NCC1CCCCC1)Oc1cccc(-c2cncc(-c3nccs3)c2)c1` [Example 116, 3-(5-(thiazol-2-yl)pyridin-3-yl)phenyl (cyclohexylmethyl)carbamate], the half-inhibitory concentration (IC50) on human recombinant MAGL was approximately 10000 nM; on human recombinant FAAH it was 10 to 100 nM.

Regarding `O=C(NC1CCCCC1)Oc1cc(O)cc(-c2cncc(-c3nnco3)c2)c1` [Example 164, 3-(5-(1,3,4-oxadiazol-2-yl)pyridin-3-yl)-5-hydroxyphenyl cyclohexylcarbamate], the half-maximal inhibitory concentration (IC50) at human recombinant MAGL is more than 50000 nM; at human recombinant FAAH, 10 to 100 nM.

For `CCCCCCCNC(=O)Oc1cccc(-c2cncc(C#N)c2)c1` [Example 26, 3-(5-cyanopyridin-3-yl)phenyl heptylcarbamate], the IC50 on human recombinant FAAH lay within 10 to 100 nM.

Turning to `COc1ccc(OC(=O)NC2CCC(C)CC2)cc1-c1cncc(-c2nnco2)c1` (centres unmarked) [Example 171, 3-(5-(1,3,4-oxadiazol-2-yl)pyridin-3-yl)-4-methoxyphenyl (4-methylcyclohexyl)carbamate], the half-maximal inhibitory concentration (IC50) on human recombinant MAGL was more than 10000 nM; on human recombinant FAAH, 100 to 1000 nM.

`COc1ccc(OC(=O)NCc2ccccc2)cc1-c1cncc(-c2nnn[nH]2)c1` [Example 252, 3-(5-(1H-tetrazol-5-yl)pyridin-3-yl)-4-methoxyphenyl benzylcarbamate]: the concentration for half-maximal inhibition (IC50) at human recombinant MAGL is more than 10000 nM; at human recombinant FAAH, more than 1000 nM.

On to `CN(C)c1ccc(OC(=O)NC2CCCCC2)cc1-c1cncc(-c2nnco2)c1` [Example 184, 3-(5-(1,3,4-oxadiazol-2-yl)pyridin-3-yl)-4-(dimethylamino)phenyl cyclohexylcarbamate], for which the values for the IC50 at human recombinant MAGL and on human recombinant FAAH were more than 10000 nM and more than 1000 nM, respectively.

`O=Cc1cncc(-c2cccc(OC(=O)NC3CCCCCC3)c2)c1` [Example 20, 3-(5-formylpyridin-3-yl)phenyl cyclohepylcarbamate]: the IC50 on human recombinant MAGL is more than 10000 nM; at human recombinant FAAH, 100 to 1000 nM.

On to `CCCCCCCCCCCCNC(=O)Oc1cccc(-c2cncc(-c3nnco3)c2)c1` [Example 131, 3-(5-(1,3,4-oxadiazol-2-yl)pyridin-3-yl)phenyl dodecylcarbamate], for which, at human recombinant FAAH, the half-inhibitory concentration (IC50) lay within 10 to 20 nM.

In the case of `COc1ccc(OC(=O)NC2CCCC2)cc1-c1cncc(-c2ccc[nH]2)c1` [Example 44, 3-(5-(1H-pyrrol-2-yl)pyridin-3-yl)-4-methoxyphenyl cyclopentylcarbamate], the figures for the IC50 on human recombinant MAGL and at human recombinant FAAH were more than 10000 nM and more than 1000 nM, respectively.

Regarding `O=C(NCc1ccccc1)Oc1cccc(-c2cncc(-c3cccs3)c2)c1` [Example 61, 3-(5-(thiophen-2-yl)pyridin-3-yl)phenyl benzylcarbamate], the IC50 was more than 10000 nM on human recombinant MAGL and approximately 100 nM at human recombinant FAAH.

Regarding `COc1ccc(OC(=O)NC2CCCC2)cc1-c1cncc(-c2cccs2)c1` [Example 68, 4-methoxy-3-(5-(thiophen-2-yl)pyridin-3-yl)phenyl cyclopentylcarbamate], the IC50 was approximately 10000 nM on human recombinant MAGL and 100 to 1000 nM at human recombinant FAAH.

On to `COc1ccc(OC(=O)NC2CCCCC2)cc1-c1cncc(-c2ccc[nH]2)c1` [Example 45, 3-(5-(1H-pyrrol-2-yl)pyridin-3-yl)-4-methoxyphenyl cyclohexylcarbamate], for which the values for the concentration for half-maximal inhibition (IC50) on human recombinant MAGL and at human recombinant FAAH were more than 10000 nM and more than 1000 nM, respectively.

Turning to `O=C(NC1CCCCC1)Oc1cccc(-c2cncc(C(F)(F)F)c2)c1` [Example 33, 3-(5-(trifluoromethyl)pyridin-3-yl)phenyl cyclohexylcarbamate], the IC50 was more than 10000 nM on human recombinant MAGL and 100 to 1000 nM at human recombinant FAAH.

As to `CN(C)c1ccc(OC(=O)NCc2ccccc2)cc1-c1cncc(-c2nnco2)c1` [Example 182, 3-(5-(1,3,4-oxadiazol-2-yl)pyridin-3-yl)-4-(dimethylamino)phenyl benzylcarbamate], the IC50 at human recombinant MAGL was more than 10000 nM; on human recombinant FAAH, more than 1000 nM.

`COc1ccc(OC(=O)NCC2CCCCC2)cc1-c1cncc(-c2ccco2)c1` [Example 54, 3-(5-(furan-2-yl)pyridin-3-yl)-4-methoxyphenyl (cyclohexylmethyl)carbamate]: the IC50 on human recombinant MAGL was approximately 10000 nM; on human recombinant FAAH, 100 to 1000 nM.

Turning to `COc1ccc(OC(=O)NC2CCCC2)cc1-c1cncc(-c2ncco2)c1` [Example 80, 4-methoxy-3-(5-(oxazol-2-yl)pyridin-3-yl)phenyl cyclopentylcarbamate], the values for the half-inhibitory concentration (IC50) on human recombinant MAGL and at human recombinant FAAH were more than 10000 nM and 10 to 100 nM, respectively.

Regarding `O=C(NC1CCCC1)Oc1ccc(F)c(-c2cncc(-c3ncco3)c2)c1` [Example 85, 4-fluoro-3-(5-(oxazol-2-yl)pyridin-3-yl)phenyl cyclopentylcarbamate], the figures for the half-inhibitory concentration (IC50) on human recombinant MAGL and on human recombinant FAAH were more than 10000 nM and 10 to 100 nM, respectively.

For the molecule `Cc1ccc(-c2cncc(-c3ncco3)c2)cc1OC(=O)NCC1CCCCC1` [Example 93, 2-methyl-5-(5-(oxazol-2-yl)pyridin-3-yl)phenyl (cyclohexylmethyl)carbamate], the results for the IC50 on human recombinant MAGL and at human recombinant FAAH were 1000 to 10000 nM and more than 1000 nM, respectively.

With `CCCCCCCCNC(=O)Oc1ccc(OC(F)(F)F)c(-c2cncc(-c3ncco3)c2)c1` [Example 88, 3-(5-(oxazol-2-yl)pyridin-3-yl)-4-(trifluoromethoxy)phenyl octylcarbamate], the half-inhibitory concentration (IC50) at human recombinant FAAH was in the range of 10 to 100 nM.

With `CCCCCCCNC(=O)Oc1ccc(OC)c(-c2cncc(-c3nnco3)c2)c1` [Example 166, 3-(5-(1,3,4-oxadiazol-2-yl)pyridin-3-yl)-4-methoxyphenyl heptylcarbamate], the half-inhibitory concentration (IC50) on human recombinant FAAH is 10 to 100 nM.

Take `CCCCCCCCNC(=O)Oc1ccc(OC)c(-c2cncc(-c3nnco3)c2)c1` [Example 167, 3-(5-(1,3,4-oxadiazol-2-yl)pyridin-3-yl)-4-methoxyphenyl octylcarbamate]: the half-maximal inhibitory concentration (IC50) at human recombinant FAAH fell in the range of 1 to 10 nM.

For `CCCCCCCCNC(=O)Oc1cccc(-c2cncc(C#N)c2)c1` [Example 27, 3-(5-cyanopyridin-3-yl)phenyl octylcarbamate], the concentration for half-maximal inhibition (IC50) at human recombinant FAAH was in the range of 10 to 100 nM.

For the molecule `CCCCCCCCNC(=O)Oc1cccc(-c2cncc(-c3ccco3)c2)c1` [Example 47, 3-(5-(furan-2-yl)pyridin-3-yl)phenyl octylcarbamate], the IC50 at human recombinant FAAH was 1 to 10 nM.

Take `CCCCCNC(=O)Oc1cccc(-c2cncc(C(=O)OC)c2)c1` [Example 8, methyl 5-(3-((pentylcarbamoyl)oxy)phenyl)nicotinate]: the IC50 at human recombinant FAAH lay within 10 to 100 nM.

On to `CCCCCNC(=O)Oc1cccc(-c2cncc(C(=O)OCC)c2)c1` [Example 1, ethyl 5-(3-((pentylcarbamoyl)oxy)phenyl)nicotinate], for which, at human recombinant FAAH, the half-maximal inhibitory concentration (IC50) fell in the range of 10 to 100 nM.

As to `CCCCCCCNC(=O)Oc1ccc(O)c(-c2cncc(-c3nnco3)c2)c1` [Example 156, 3-(5-(1,3,4-oxadiazol-2-yl)pyridin-3-yl)-4-hydroxyphenyl heptylcarbamate], the IC50 on human recombinant FAAH was 1 to 10 nM.

Turning to `CCCCCCCCNC(=O)Oc1ccc(OC)c(-c2cncc(-c3ccc[nH]3)c2)c1` [Example 41, 3-(5-(1H-pyrrol-2-yl)pyridin-3-yl)-4-methoxyphenyl octylcarbamate], the IC50 on human recombinant FAAH was in the range of 10 to 100 nM.

For `CCCCCCCCNC(=O)Oc1cccc(-c2cncc(C(=O)OCC)c2)c1` [Example 3, ethyl 5-(3-((octylcarbamoyl)oxy)phenyl)nicotinate], at human recombinant FAAH, the IC50 lay in the range of 10 to 100 nM.

As to `CCCCCCCCNC(=O)Oc1cccc(-c2cncc(-c3nnco3)c2)c1` [Example 130, 3-(5-(1,3,4-oxadiazol-2-yl)pyridine-3-yl)phenyl octylcarbamate], at human recombinant FAAH, the IC50 lay within 1 to 10 nM.

For the molecule `CCCCCCNC(=O)Oc1cccc(-c2cncc(-c3nnco3)c2)c1` [Example 128, 3-(5-(1,3,4-oxadiazol-2-yl)pyridin-3-yl)phenyl hexylcarbamate], the half-inhibitory concentration (IC50) on human recombinant FAAH was 10 to 20 nM.

Take `O=C(NC1CCCCC1)Oc1cccc(-c2cc(-c3nnco3)ccn2)c1` [Example 260, 3-(4-(1,3,4-oxadiazol-2-yl)pyridin-2-yl)phenyl cyclohexylcarbamate]: on human recombinant MAGL, the IC50 was more than 10000 nM.

As for `CCCCCCCNC(=O)Oc1cccc(-c2cncc(C(=O)OC)c2)c1` [Example 9, methyl 5-(3-((heptylcarbamoyl)oxy)phenyl)nicotinate], at human recombinant FAAH, the IC50 was in the range of 1 to 10 nM.

Turning to `COc1ccc(OC(=O)NC2CCCCC2)cc1-c1cncc(-c2nncs2)c1` [Example 217, 3-(5-(1,3,4-thiadiazol-2-yl)pyridin-3-yl)-4-methoxyphenyl cyclohexylcarbamate], the IC50 on human recombinant FAAH is 100 to 1000 nM.

Take `CCCCCCCCNC(=O)Oc1cccc(-c2cncc(C(=O)OC)c2)c1` [Example 10, methyl 5-(3-((octylcarbamoyl)oxy)phenyl)nicotinate]: the IC50 at human recombinant FAAH is 1 to 10 nM.

In the case of `CCCCCCCCNC(=O)Oc1ccc(OC)c(-c2cncc(-c3cccs3)c2)c1` [Example 65, 4-methoxy-3-(5-(thiophen-2-yl)pyridin-3-yl)phenyl octylcarbamate], the IC50 on human recombinant FAAH lay in the range of 10 to 100 nM.

With `CCCCCCCCNC(=O)Oc1cccc(-c2cncc(C(F)(F)F)c2)c1` [Example 30, 3-(5-(trifluoromethyl)pyridin-3-yl)phenyl octylcarbamate], at human recombinant FAAH, the IC50 fell in the range of 10 to 100 nM.
